Where a name gives a salt, the structure may show the parent alone.
flash point [°C] | SMILES
17.00 | CCC(C)OC(C)=O (stereo not given) [butan-2-yl acetate]
52.00 | CCC(C)c1ccccc1 (stereo not given) [butan-2-ylbenzene]
52.00 | CC(N)CCN (stereo not given) [butane-1,3-diamine]
27.00 | CC(=O)C(C)=O [butane-2,3-dione]
160.00 | O=C(O)CCC(=O)O [butanedioic acid]
71.00 | CCCCOC(=O)C(C)O (stereo not given) [butyl 2-hydroxypropanoate]
53.00 | CCCCOC(=O)CC(C)C [butyl 3-methylbutanoate]
180.00 | CCCCCCCC/C=C\CCCCCCCC(=O)OCCCC [butyl (Z)-octadec-9-enoate]
107.00 | CCCCOC(=O)c1ccccc1 [butyl benzoate]
18.00 | CCCCOC=O [butyl formate]
38.00 | CCCCOC(=O)CC [butyl propanoate]
-18.00 | C[Si](C)(C)Cl [chloro(trimethyl)silane]
32.00 | ClC1CCCCC1 [chlorocyclohexane]
-50.00 | CCCl [chloroethane]
151.00 | O=c1ccc2ccccc2o1 [chromen-2-one]
36.00 | CC(C)c1ccccc1 [cumene]

flash point [°C] | SMILES
26.00 | C1=CCCC=C1 [cyclohexa-1,3-diene]
43.00 | SC1CCCCC1 [cyclohexanethiol]
44.00 | O=C1CCCCC1 [cyclohexanone]
-12.00 | C1=CCCCC1 [cyclohexene]
4.00 | [Ni+2].c1cc[cH-]c1.c1cc[cH-]c1 [cyclopenta-1,3-diene;nickel(2+)]
53.00 | C=CCCCCCCCC [dec-1-ene]
85.00 | CCCCCCCCCC=O [decanal]
98.00 | CCCCCCCCCCS [decane-1-thiol]
220.00 | O=C(O)CCCCCCCCC(=O)O [decanedioic acid]
113.00 | CCCCCCCCCC(=O)O [decanoic acid]
107.00 | CCCCCCCCCCc1ccccc1 [decylbenzene]
178.00 | CCCCOC(=O)CCCCCCCCC(=O)OCCCC [dibutyl decanedioate]
113.00 | CCCCOC(=O)CCCCC(=O)OCCCC [dibutyl hexanedioate]
142.00 | Cl[Si](Cl)(c1ccccc1)c1ccccc1 [dichloro(diphenyl)silane]
2.00 | CCCCCCCCCCCCCCCCCC(=O)O.O.[Cl][Cr][Cl].[Cl][Cr][Cl] [dichlorochromium;octadecanoic acid;hydrate]

SMILES | flash point [°C]
OCCCCO [butane-1,4-diol] | 119.00
CCCCS [butane-1-thiol] | 13.00
N#CCCC#N [butanedinitrile] | 132.00
CCCC(=O)Cl [butanoyl chloride] | 22.00
CCCCOC(C)=O [butyl acetate] | 22.00
C=CC(=O)OCCCC [butyl prop-2-enoate] | 49.00
CCCCc1ccccc1 [butylbenzene] | 71.00
C=CCl [chloroethene] | -79.00
ClCc1ccccc1 [chloromethylbenzene] | 67.00
N#CN [cyanamide] | 141.00
C1=CCCC=CCCC=CCC1 [cyclododeca-1,5,9-triene] | 71.00
CCCCOC(=O)c1ccccc1C(=O)OCCCC [dibutyl benzene-1,2-dicarboxylate] | 157.00
CCCCOP(=O)(O)OCCCC [dibutyl hydrogen phosphate] | 188.00
CCC[CH2][Sn]([Cl])([Cl])[CH2]CCC [dibutyl(dichloro)stannane] | 168.00
